Laboratory results: patent publication US12673054B2, “Substituted nucleoside analogs as PRMT5 inhibitors” (Lupin Limited, priority 2019, dated 2026)
Like-named read-outs stand apart in the source and are kept apart here.

Columns and labels:
MIA PaCa-2 cells = test: Anti-Cancer Assay (MIA PaCa-2); type: cell-based; details: Homo sapiens, 240 h, 10 days, read-out: IC50 (inhibition of cell viability), activity range
Experimental: (§1) Z-138 cells were seeded at a density of 2000-3000 cells per well in culture media (IMDM+10% FBS). PANC-1 (ATCC, CRL-1469™) and MIA PaCa-2 (ATCC, CRL-1420™) cells were seeded at a density of 200-300 cells per well in culture media (DMEM+10% FBS). Cells were seeded in opaque, flat bottomed tissue culture grade 96-well plates and Z-138 cells (suspension) were seeded and treated on the same day with various concentrations of test compounds. PANC-1 and MIA PaCa-2 cells, being adherent, were kept for overnight settlement at standard cell culture conditions (37° C., 5% CO2). On the following day, cells were treated with various concentrations of test compounds. Cells were treated with test compounds for a period of 96 h, 7 days and 10 days, for Z-138 cells, PANC-1 cells and MIA PaCa-2 cells, respectively. Cell viability was assessed using CellTiterGlo™ (Promega, USA) as per manufacturer's instructions. Relative Light Units (RLU) were read in Synergy™ 2 reader (Biotek, USA). The assay measures cellular ATP as an indicator of cell viability. RLU is proportional to the number of viable cells in the respective well.
(§2) % inhibition of cell viability was calculated relative to the vehicle control samples containing media with 0.1% DMSO alone as per the formula below. (Avg. of Untreated Control−Avg. of Test)×100 • Avg. of Untreated control
(§3) The IC50 values of individual compounds were calculated with Non Linear Regression Analysis using Graph Pad Prism (Graph Pad software, Inc, USA).

SDMA = SDMA inhibition assay; type: cell-based; details: Homo sapiens, Z-138 cells, 48 h
Experimental: Z-138 cells (ATCC, CRL-3001™) were seeded at a density of 1 million cells/well in transparent, flat bottomed tissue culture grade 48-well plates. Cells were treated with various concentration of test compounds for a period of 48 h. Cell lysate was prepared using 1×CST Lysis buffer (Cell Signaling Technology, USA) and 500 ng/well/50 μL of lysate in pH 9.6 carbonate buffer was coated on 96-well Maxisorb plate and incubated overnight at 4° C. The plate was washed twice in 1×PBS containing 0.05% Tween 20 and blocked in 1% BSA for 1 h at ambient temperature. Further, the plate was incubated first with primary antibody (anti-SDMA antibody; CST #13222s) at ambient temperature for 2 h and then with HRP-conjugated secondary antibody at ambient temperature for 1 h with 2 intermittent washing steps in between.
For luminescence based detection, HRP substrates (substrate A+ substrate B in a 1:1 proportion) were added followed by luminescence reading after 30 min in Synergy™ 2 reader (Biotek, USA).
For absorbance based detection, TMB substrate was added followed by addition of STOP solution (2N H2SO4) post colour development and absorbance (excitation 450 nm and emission 540 nm) was measured in Synergy™ 2 reader (Biotek, USA).
% inhibition of SDMA was calculated relative to the vehicle control samples containing media with 0.1% DMSO alone as per the formula below. (Avg. of Untreated Control−Avg. of Test)×100 • Avg. of Untreated control
as §3

PRMT5:MEP50 = PRMT5:MEP50 (Homo sapiens, UniProt O14744); test: Biochemical assay, HTRF detection, inhibitory effect on PRMT5; details: biotinylated H4R3 substrate, 1 μM SAM; protocol 1 or 2 not given; read-out: IC50 (PRMT5 inhibition), activity range
Sequence of PRMT5:MEP50 (O14744 whole entry, the tested form may be a part): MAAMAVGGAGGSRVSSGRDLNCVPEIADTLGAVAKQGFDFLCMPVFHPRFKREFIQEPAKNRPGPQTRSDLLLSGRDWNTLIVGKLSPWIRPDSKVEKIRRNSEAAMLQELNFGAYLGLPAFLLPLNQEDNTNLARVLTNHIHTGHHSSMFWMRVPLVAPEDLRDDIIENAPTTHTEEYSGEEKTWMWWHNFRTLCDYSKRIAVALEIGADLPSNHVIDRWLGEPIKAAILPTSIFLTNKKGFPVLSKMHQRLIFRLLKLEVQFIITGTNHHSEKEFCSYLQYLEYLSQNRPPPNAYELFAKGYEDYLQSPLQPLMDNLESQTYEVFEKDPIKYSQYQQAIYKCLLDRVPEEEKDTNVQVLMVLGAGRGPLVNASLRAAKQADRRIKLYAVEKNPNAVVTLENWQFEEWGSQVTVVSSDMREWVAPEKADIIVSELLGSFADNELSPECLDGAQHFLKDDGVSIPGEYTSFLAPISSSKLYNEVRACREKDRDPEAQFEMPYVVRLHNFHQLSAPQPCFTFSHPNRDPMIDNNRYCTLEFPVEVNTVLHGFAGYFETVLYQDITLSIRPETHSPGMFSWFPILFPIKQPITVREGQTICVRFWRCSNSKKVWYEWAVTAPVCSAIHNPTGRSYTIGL
Sequence of PRMT5:MEP50 (Q9BQA1 whole entry partner, the tested form may be a part): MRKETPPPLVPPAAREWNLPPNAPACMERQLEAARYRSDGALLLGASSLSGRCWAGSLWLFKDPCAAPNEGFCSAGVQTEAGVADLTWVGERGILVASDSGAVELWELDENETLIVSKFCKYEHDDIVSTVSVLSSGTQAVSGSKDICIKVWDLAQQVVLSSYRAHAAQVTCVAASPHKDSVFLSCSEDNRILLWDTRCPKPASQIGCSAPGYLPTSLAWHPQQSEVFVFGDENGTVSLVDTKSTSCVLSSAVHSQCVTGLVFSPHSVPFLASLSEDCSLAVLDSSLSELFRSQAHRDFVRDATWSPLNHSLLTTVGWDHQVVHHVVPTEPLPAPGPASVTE
Experimental: (§4) Inhibitory effect of compounds on PRMT5 was assessed using HTRF detection technology in biochemical assay. Biotinylated H4R3 (residues 1-21) was used as a substrate. Compounds were pre-incubated with 15-25 ng PRMT5:MEP50 per well of a 384-well plate for 30 min at room temperature in the assay buffer containing 20 mM Bicine, pH 7.6, 25 mM NaCl, 2 mM DTT, 0.01% Chicken albumin and 0.01% Tween-20. Reaction was initiated by adding 1 μM of SAM and 50 nM biotinylated H4R3. Total assay volume was 15 μL. Reaction was continued for 120 min at room temperature. Then detection solution containing Streptavidin-Eu cryptate, anti-rabbit IgG-XL-665, Histone H4R3 Dimethyl Symmetric (H4R3me2s) Polyclonal Antibody, all prepared in HTRF detection buffer was added and further incubated for 30 min at room temperature. HTRF signal was recorded in PHERAStar microplate reader. Ratio of signal obtained at 665 nm and 620 nm was used to compute the percent inhibition of compound as follows % Inhibition=100−((Test Ratio−Negative control Ratio)/(Positive control Ratio−Negative control Ratio)*100) where Positive control=PRMT5+SAM+H4R3 Negative control=PRMT5+H4R3
as §4, with “2.5” for “15-25”, “4 h” for “120 min”

MIA PaCa-2 xenograft = test: Subchronic MIA PaCa-2 xenograft model, tumor growth inhibition; type: in vivo, Mus musculus; details: 2 mg/kg dose, female athymic nude mice
Experimental: Tumor size was measured with Digimatic Vernier caliper (Mitutoyo, Japan) when the tumors became palpable. Tumor volume (T. V.) is calculated by using the formula: Tumor volume (mm3)=(L×W2)/2
Where, L: Length of tumor, W: Width of tumor in millimeter Percent tumor growth inhibition (% TGI) is calculated using the formula: % TGI=[1−(Tf−Ti)/(Cf−Ci)]×100
Where, Tf and Ti, are the final and initial tumor volumes (test compound), and Cf and Ci are the final and initial mean tumor volumes (vehicle group), respectively.
Tumor fragment xenograft for pancreatic cancer cell line MIA PaCa-2 was established by implantation of tumor fragments 30-45 mm^3 subcutaneously into the right flank of female athymic nude FOXn1/J/Mus musculus mice with an age between 10-11 weeks purchased from the Jackson Laboratory, USA. All animal study proposals were reviewed and approved by the Institutional Animal Ethics Committee (IAEC) prior to initiation of experimentation.

Z-138 cells = test: Anticancer activity assay (cell viability, CellTiterGlo); type: cell-based; details: Homo sapiens, cell line not given, read-out: IC50 (inhibition of cell viability), activity range
Experimental: as §1, §2, §3

[1] = range given with mixed units (pM to nM)
[2] = read-out: IC50 (SDMA inhibition), activity range

Row | Structure (SMILES) | IC50 (MIA PaCa-2 cells) [pM] | IC50 (SDMA; [1]) [pM] | IC50 (PRMT5:MEP50) [nM] | IC50 (MIA PaCa-2 cells; [1]) [pM] | IC50 (SDMA; [2]) [pM] | IC50 (Z-138 cells) [nM] | % of tumor growth inhibition (MIA PaCa-2 xenograft) [%]
1 | Cc1nc(N)c2ccn([C@@H]3C=C(COc4cc(F)c5cc(Cl)c(N)nc5c4)[C@@H](O)[C@H]3O)c2n1 [Example 3, (1S,2R,5R)-5-(4-Amino-2-methyl-7H-pyrrolo[2,3-d]pyrimidin-7-yl)-3-(((2-amino-3-chloro-5-fluoroquinolin-7-yl)oxy)methyl)cyclopent-3-ene-1,2-diol] |  |  | 0.4 to 0.75 | 401 to 30000 | 1100 to 50000 |  | 
2 | Cc1nc(N)nc2c1cnn2[C@@H]1C=C(CCc2cc(F)c3cc(Cl)c(N)nc3c2)[C@@H](O)[C@H]1O [Example 4, (1S,2R,5R)-3-(2-(2-Amino-3-chloro-5-fluoroquinolin-7-yl)ethyl)-5-(6-amino-4-methyl-1H-pyrazolo[3,4-d]pyrimidin-1-yl)cyclopent-3-ene-1,2-diol] |  | 100 to 1000 | 0.4 to 0.75 | 401 to 30000 |  |  | 
3 | Cc1nc(N)c2ccn([C@@H]3C=C(CCc4cc(F)c5cc(Cl)c(N)nc5c4)[C@@H](O)[C@H]3O)c2n1 [Example 7, (1S,2R,5R)-5-(4-Amino-2-methyl-7H-pyrrolo[2,3-d]pyrimidin-7-yl)-3-(2-(2-amino-3-chloro-5-fluoroquinolin-7-yl)ethyl)cyclopent-3-ene-1,2-diol] | 1 to 400 | 100 to 1000 | 0.4 to 0.75 |  |  |  | 
4 | Cc1nc(N)nc2c1ccn2[C@@H]1C=C(CCc2cc(C(F)F)c(F)c3c2CNCC3)[C@@H](O)[C@H]1O [Example 8, (1S,2R,5R)-5-(2-Amino-4-methyl-7H-pyrrolo[2,3-d]pyrimidin-7-yl)-3-(2-(6-(difluoromethyl)-5-fluoro-1,2,3,4-tetrahydroisoquinolin-8-yl)ethyl)cyclopent-3-ene-1,2-diol] |  |  | 0.4 to 0.75 |  | 1100 to 50000 | > 1 | 

Second part, led by results:

Row | IC50 (MIA PaCa-2 cells) [pM] | IC50 (SDMA; [1]) [pM] | IC50 (PRMT5:MEP50) [nM] | IC50 (MIA PaCa-2 cells; [1]) [pM] | IC50 (SDMA; [2]) [pM] | IC50 (Z-138 cells) [nM] | Structure (SMILES) | % of tumor growth inhibition (MIA PaCa-2 xenograft) [%]
5 | 1 to 400 | 100 to 1000 | 0.4 to 0.75 |  |  |  | Cc1nc(N)nc2c1ccn2[C@@H]1C=C(CCc2cc(F)c3cc(Cl)c(N)nc3c2)[C@@H](O)[C@H]1O [Example 1, (1S,2R,5R)-3-(2-(2-Amino-3-chloro-5-fluoroquinolin-7-yl)ethyl)-5-(2-amino-4-methyl-7H-pyrrolo[2,3-d]pyrimidin-7-yl)cyclopent-3-ene-1,2-diol] | 57
6 |  |  | 0.4 to 0.75 | 401 to 30000 | 1100 to 50000 |  | Cc1nc(N)nc2c1ccn2[C@@H]1C=C(COc2cc(F)c3cc(Cl)c(N)nc3c2)[C@@H](O)[C@H]1O [Example 2, (1S,2R,5R)-3-(((2-Amino-3-chloro-5-fluoroquinolin-7-yl)oxy)methyl)-5-(2-amino-4-methyl-7H-pyrrolo[2,3-d]pyrimidin-7-yl)cyclopent-3-ene-1,2-diol] | 
7 |  |  | > 0.75 |  |  | > 1 | Cc1nc(N)c2ccn([C@@H]3C=C(COc4cc(C(F)F)cc5c4CNCC5)[C@@H](O)[C@H]3O)c2n1 [Example 5, (1S,2R,5R)-5-(4-Amino-2-methyl-7H-pyrrolo[2,3-d]pyrimidin-7-yl)-3-(((6-(difluoromethyl)-1,2,3,4-tetrahydroisoquinolin-8-yl)oxy)methyl)cyclopent-3-ene-1,2-diol] | 
8 |  |  | > 0.75 |  |  | > 1 | Cc1nc(N)c2ccn([C@@H]3C=C(CCc4cc(C(F)F)cc5c4CNCC5)[C@@H](O)[C@H]3O)c2n1 [Example 6, (1S,2R,5R)-5-(4-Amino-2-methyl-7H-pyrrolo[2,3-d]pyrimidin-7-yl)-3-(2-(6-(difluoromethyl)-1,2,3,4-tetrahydroisoquinolin-8-yl)ethyl)cyclopent-3-ene-1,2-diol] | 
